Laboratory results reported in patent US20110144177A1, “Carbamoyl Esters That Inhibit Cholinesterase And Release Pharmacologically Active Agents” (priority 2003, published 2011).

Legend:
[1] = tested on: scopolamine-induced amnesia; experiment: Scopolamine induced amnesia in multiple trial passive (inhibitory) avoidance assay; type: in vivo, rat; conditions: for Performance relative to scopolamine / Performance relative to saline: at the most effective dose, latency to enter dark chamber; for Performance relative to scopolamine: relative to impaired (scopolamine) group; for Performance relative to saline: relative to unimpaired (saline) control group; for most effective dose (the dose that increases the latency the most): i.p. immediately after training, scopolamine 0.75 mg/kg, retention 24 hours later
Text: Inhibitory avoidance is used as a cognitive performance screen because the discrete nature of the task allows for precise pharmacological manipulation and for the ability to selectively study acquisition, consolidation, or recall or learned information.
The inhibitory avoidance apparatus used in these experiments consisted of a light chamber and a dark chamber, which were joined by means of a sliding guillotine door. Training involved placing a rat inside the light chamber with its head facing away from the door. Ten seconds later, the sliding door was opened, and the latency to enter the dark chamber was recorded (100 second maximum). When the rat entered the dark chamber, it received a continuous footshock (0.4 mA) through the metal grid floor until it returned to the light chamber. This sequence of events continued until the rat remained in the light chamber for a period of 100 consecutive seconds or until a maximum of 5 footshocks had been received.
Retention testing, or the ability of the rat to remember the previous events in the inhibitory avoidance apparatus, was conducted 24 hours after the initial testing. The rat was placed into the light chamber with its head facing away from the door. Ten seconds later, the door was opened, allowing the rat access to the dark chamber. No footshock was administered during retention testing. Latency to enter the dark chamber was recorded (900 seconds maximum) and used as a measure of memory.
To assess the effects of the carbamoyl esters on scopolamine-induced amnesia, rats were injected with saline or scopolamine hydrochloride (0.75 mg/kg) 30 minutes prior to training on the Inhibitory Avoidance task. Immediately following the training trial, rats were injected with saline or the carbamoyl ester.
Retention for the task in scopolamine or saline treated rats, was assessed as described above, 24 hours later. No compound (drug) was administered to the rat prior to the retention test and no shock was given during retention testing. For retention testing, the rat was placed into the light chamber. Fifteen seconds later, the door was automatically opened and latency to enter the dark compartment was measured. The latency to enter the dark chamber is the primary measure of memory on this task. Carbamoyl esters were evaluated in this protocol.

[2] = tested on: total cholinesterase activity in the brain; experiment: Total cholinesterase activity in brain homogenate after i.p. injection; type: in vivo, Male Wistar rats; conditions: for tolerability of the dose: i.p. dose giving a cholinergic behavioral effect with minimal side effects
Protocol: Animals were decapitated 3 hours after injection and the brains rapidly removed. The brain tissue was diced into small pieces, placed on ice and immediately homogenized with a Polytron PT1200 (Kinematic AG) in 10 ml ice cold Tris with 0.1% Triton-X and protease inhibitors. The protease inhibitors in the extraction buffer were Antipain (10 μM), Aprotinin (5 TIU/mg protein), Bestatin ([…]), Leupeptin (10 μM) and Pepstatin (1 μM). The final dilution of the homogenate in the final assay mixture was 120-fold.
Total cholinesterase activity was determined by a modification of the colorimetric method of Ellmann, et al. (Biochem. Pharmacol., 7:88-95 (1961)), as described above. Hydrolysis of acetylthiocholine was monitored indirectly by measurement of the formation of the conjugate between thiocholine and DTNB. Optical density at 405 nm was recorded during five (5) minutes employing a microplate spectrophotometer (Polarstar, BMG Labtech), and plotted against time. The initial rates were calculated from the slope of the linear portion of the graph.
Cholinesterase activity was normalized for protein content of the homogenate. Relative cholinesterase activity was calculated as the ratio of normalized cholinesterase activity in a rat treated with a control compound or a carbamoyl ester over normalized cholinesterase activity in saline treated rats.

[3] = molecular target: human recombinant acetylcholinesterase (Homo sapiens, UniProt P22303); type: biochemical
human recombinant acetylcholinesterase, sequence (P22303 32-614): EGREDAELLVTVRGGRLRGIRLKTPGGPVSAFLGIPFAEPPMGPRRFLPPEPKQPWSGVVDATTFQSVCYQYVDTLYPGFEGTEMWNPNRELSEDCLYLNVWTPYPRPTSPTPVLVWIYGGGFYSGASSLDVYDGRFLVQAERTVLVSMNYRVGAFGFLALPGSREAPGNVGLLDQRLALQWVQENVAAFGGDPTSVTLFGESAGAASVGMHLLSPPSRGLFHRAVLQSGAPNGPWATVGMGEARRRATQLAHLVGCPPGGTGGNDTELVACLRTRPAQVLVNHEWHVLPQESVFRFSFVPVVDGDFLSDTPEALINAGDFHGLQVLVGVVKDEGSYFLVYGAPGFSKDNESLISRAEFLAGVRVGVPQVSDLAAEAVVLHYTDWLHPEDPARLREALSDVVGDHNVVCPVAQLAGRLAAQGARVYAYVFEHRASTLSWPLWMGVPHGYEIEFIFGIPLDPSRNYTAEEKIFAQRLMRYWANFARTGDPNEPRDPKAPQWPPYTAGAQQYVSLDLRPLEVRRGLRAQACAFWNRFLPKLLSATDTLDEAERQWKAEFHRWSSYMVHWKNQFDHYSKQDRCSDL

With CC(Cc1ccccc1)NC(=O)Oc1cccc([C@H](C)N(C)C)c1 (some centres unmarked) [Compound 3] the “Performance relative to scopolamine” value [1] was 294%, the “Performance relative to saline” value [1] was 100% and the “most effective dose (the dose that increases the latency the most)” value [1] was 1.4 mg/kg.

With C[C@H](Cc1ccccc1)N(C)C(=O)Oc1cccc([C@H](C)N(C)C)c1 [Compound 7] the ChE inhibition ([2]; 2 mg/kg i.p., brain 3 hours after injection) was 38%, the “Relative ChE Activity” value ([2]; 2 mg/kg i.p., brain 3 hours after injection, relative to saline treated rats) was 62% and the “tolerability of the dose” value [2] was “well-tolerated”. For the same molecule, the “Performance relative to scopolamine” value [1] was 298%, the “Performance relative to saline” value [1] was 64% and the “most effective dose (the dose that increases the latency the most)” value [1] was 0.25 mg/kg.

With C[C@H](Cc1ccccc1)NC(=O)Oc1cccc([C@H](C)N(C)C)c1 [Compound 9] the ChE inhibition ([2]; 8 mg/kg i.p., brain 3 hours after injection) was 41%, the “tolerability of the dose” value [2] was “well-tolerated” and the “Performance relative to scopolamine” value [1] was 306%. For the same molecule, the “Performance relative to saline” value [1] was 83% and the “most effective dose (the dose that increases the latency the most)” value [1] was 0.1 mg/kg.

With C[C@H](Cc1ccccc1)NC(=O)Oc1ccc2c(c1)[C@]1(C)CCN(C)[C@@H]1N2C [Compound 14] the “fold increase in enzymatic activity compared to rivastigmine” value [3] was 10 fold, the “Performance relative to scopolamine” value [1] was 186% and the “Performance relative to saline” value [1] was 51%. For the same molecule, the “most effective dose (the dose that increases the latency the most)” value [1] was 0.02 mg/kg.

In the case of CCN(C)C(=O)Oc1cccc([C@H](C)N(C)C)c1 [Rivastigmine, reference compound], the “tolerability of the dose” value [2] is reported as “well-tolerated” and the “most effective dose (the dose that increases the latency the most)” value [1] is reported as 0.25 mg/kg.
